{
  "source": "patent US20260108483A1",
  "about": "“METHODS AND COMPOSITIONS FOR PREVENTING THE PROGRESSION OF DIABETIC RETINOPATHY AND RELATED CONDITIONS” (Opus Genetics, Inc., priority 2023, published 2026)",
  "assay_type_in_all_cases": "in vivo, human",
  "key": {"[1]": {"experiment": "Clinical study safety: diastolic blood pressure", "conditions": "combined placebo + Compound 1 patients; for Mean Diastolic Blood Pressure: Baseline 80.3", "from_the_text": "(§1) The study was configured as a placebo-controlled, double-masked, randomized, Phase 2 study in approximately 100 subjects with moderately severe to severe NPDR (diabetic retinopathy severity score [DRSS] Level 47 or 53, see FIG. 1) or mild PDR (DRSS Level 61), evaluating safety and efficacy following administration of Compound 1 twice daily for 24 weeks. The study was configured for a 1:1 randomization (placebo: Compound 1). Randomization was stratified by level of disease severity (NPDR or PDR). Subjects with mild PDR were capped at 20% for each arm. Efficacy evaluations at 12 and/or 24 weeks included DRSS, center-involved diabetic macular edema (DME), moderate PDR or PDR-related adverse events (AEs), best-corrected visual acuity (BCVA), and central subfield thickness (CST). Further experimental procedures and results are described below.\n(§2) At the Qualification/Baseline (Visit 2, Day 1): • The subject was randomized into the study. • Study medication was dispensed in accordance with the subjects randomized treatment arm. • Blood samples were drawn pre-dose for baseline levels and on Visit 9 (Week 24) for exploratory biomarker processing (i.e., cytokine and Ref-1 levels) to evaluate pharmacodynamic properties. • Subjects were instructed to administer their study medication (Compound 1 or placebo) each day, with 3 tablets every morning and 2 tablets every evening. Study medication was to be taken at approximately the same time each day and may be taken with or without food.\n(§3) At the Second Treatment Visit (Visit 6, Week 12±2 Days), subjects were to return to the site for the following series of safety and efficacy assessments: drug accountability, concomitant medications, urine pregnancy test (only for women of childbearing potential), HR/BP/vital signs, BCVA (ETDRS), DRSS, CST (SD-OCT), blood draw for PK, blood chemistry, blood hematology, biomicroscopy, ophthalmoscopy, IOP, eGFR, and AEs. Following the completion of the assessments, used medication kits were collected for accountability (by counting the number of unused tablets), and new study medication kits dispensed.\n(§4) At the Third Treatment Visit (Visit 9, Week 24±2 Days), subjects were to return to the site for the following series of safety and efficacy assessments: drug accountability, concomitant medications, urine pregnancy test (only for women of childbearing potential), physical examination, HR/BP/vital signs, BCVA (ETDRS), DRSS, CST (SD-OCT), blood chemistry, blood hematology, biomicroscopy, ophthalmoscopy, IOP, eGFR, AEs, and blood draw for exploratory biomarkers (ELISA, cytokine panel, comprehensive metabolic panel). Visit 9 (Week 24) was the end of the treatment period. Study medication was returned for accountability (by counting the number of unused tablets), and no further study medication dispensed.\n(§5) Safety endpoints include: • Incidence and severity of systemic and ocular AEs, • Change from baseline in body system assessments, • Change from baseline in vital sign measurements, • Change from baseline in clinical laboratory assay results (blood chemistry, hematology), • Change from baseline in intraocular pressure (IOP), • Change from baseline in slit-lamp examination parameters, • Change from baseline in dilated funduscopic examination parameters, • Percent of subjects with a decrease of ≥10 letters in BCVA compared to baseline at Week 12 and Week 24, • Percent of subjects progressing to center-involved DME (eligible for rescue treatment at Week 12 and Week 24), • Percent of subjects with a worsening in DRSS of ≥2 steps in the study eye at Week 12 and Week 24, • Percent of subjects developing anterior segment neovascularization at Week 12 and Week 24, • Percent of subjects rescued (intravitreal anti-VEGF injection, laser PRP, focal/grid laser treatment, or surgery [vitrectomy]) at the discretion of the Investigator at Week 12 and Week 24, and • Change from baseline in estimated glomerular filtration rate (eGFR) at Week 12 and Week 24. […]"}, "[2]": {"experiment": "Clinical study safety: heart rate", "conditions": "combined placebo + Compound 1 patients; for Mean Heart Rate: Baseline 76.7", "from_the_text": "as §1, §2, §3, §4, §5"}, "[3]": {"experiment": "Clinical study safety: systolic blood pressure", "conditions": "combined placebo + Compound 1 patients; for Mean Systolic Blood Pressure: Baseline 136.9", "from_the_text": "as §1, §2, §3, §4, §5"}},
  "data": [
    {"smiles": "CCCCCCCCC/C(=C\\C1=C(C)C(=O)C(OC)=C(OC)C1=O)C(=O)O", "note": "[Compound 1, (E)-2-((4,5-dimethoxy-2-methyl-3,6-dioxocyclohexa-1,4-dien-1-yl)methylene)undecanoic acid]", "values": [
      {"measurement": "Mean Diastolic Blood Pressure", "setting": "[1]; Week 12, 62 subjects", "result": 77.1, "unit": "mmHg"},
      {"measurement": "Mean Diastolic Blood Pressure", "setting": "[1]; Week 24, 27 subjects", "result": 80.4, "unit": "mmHg"},
      {"measurement": "change in mean diastolic blood pressure relative to Baseline", "setting": "[1]; week 12, 62 subjects", "result": "−2.8", "unit": "mmHg"},
      {"measurement": "reduction in mean diastolic blood pressure relative to Baseline", "setting": "[1]; week 12, 62 subjects", "result": 3, "unit": "%"},
      {"measurement": "change in mean diastolic blood pressure relative to Baseline", "setting": "[1]; week 24, 27 subjects", "result": "+1 mmHg"},
      {"measurement": "increase in mean diastolic blood pressure relative to Baseline", "setting": "[1]; week 24, 27 subjects", "result": 1, "unit": "%"},
      {"measurement": "Mean Heart Rate", "setting": "[2]; Week 12, 62 subjects", "result": 76.3, "unit": "beats/min"},
      {"measurement": "Mean Heart Rate", "setting": "[2]; Week 24, 27 subjects", "result": 80.7, "unit": "beats/min"},
      {"measurement": "change in mean heart rate relative to Baseline", "setting": "[2]; week 12, 62 subjects", "result": "+0.9 beats/min"},
      {"measurement": "increase in mean heart rate relative to Baseline", "setting": "[2]; week 12, 62 subjects", "result": 1, "unit": "%"},
      {"measurement": "change in mean heart rate relative to Baseline", "setting": "[2]; week 24, 27 subjects", "result": "+4.3 beats/min"},
      {"measurement": "increase in mean heart rate relative to Baseline", "setting": "[2]; week 24, 27 subjects", "result": 6, "unit": "%"},
      {"measurement": "Mean Systolic Blood Pressure", "setting": "[3]; Week 12, 62 subjects", "result": 132, "unit": "mmHg"},
      {"measurement": "Mean Systolic Blood Pressure", "setting": "[3]; Week 24, 27 subjects", "result": 139.7, "unit": "mmHg"},
      {"measurement": "change in mean systolic blood pressure relative to Baseline", "setting": "[3]; week 12, 62 subjects", "result": "−4.7", "unit": "mmHg"},
      {"measurement": "reduction in mean systolic blood pressure relative to Baseline", "setting": "[3]; week 12, 62 subjects", "result": 3, "unit": "%"},
      {"measurement": "change in mean systolic blood pressure relative to Baseline", "setting": "[3]; week 24, 27 subjects", "result": "−0.7", "unit": "mmHg"},
      {"measurement": "reduction in mean systolic blood pressure relative to Baseline", "setting": "[3]; week 24, 27 subjects", "result": 1, "unit": "%"}
    ]}
  ]
}
